For series [1], the system named is DU145 prostate cancer cell line. Nature of the series: Cytotoxicity against DU145 prostate cancer cells.
The test system of series [2] is A2058 melanoma cell line. Nature of the series: Cytotoxicity against A2058 melanoma cells.
Series [3] relates to P388 murine leukemia cell lines. Nature of the series: Cytotoxicity against P388 murine leukemia cells.
Series [4] concerns NCI 60 cell line panel. Nature of the series: NCI 60 cell line panel evaluation. The format is cell-based. The settings on record: read-out: mean GI50.
The mark [5] stands for this setting: Homo sapiens, DU-145, read-out: Cytotoxicity IC50, DU145.
Where [6] appears, read: Homo sapiens, A2058, read-out: Cytotoxicity IC50, A2058.
Where [7] appears, read: read-out: Cytotoxicity IC50, P388, P388 murine leukemia cells.
Setting [8] is: read-out: Cytotoxicity IC50, DU145, DU145 prostate cancer cells.
The mark [9] stands for this setting: read-out: Cytotoxicity IC50, A2058, A2058 melanoma cells.

Six compounds from article PMC6021127 (Nature chemistry, 2017) can be followed below.

Where two headings read alike, the source gives them in different places. Some results are limits rather than exact numbers.

A word on the IC50: it is the concentration that gives 50% inhibition. In the case of `COC(=O)C[C@](O)(CCCC(C)(C)O)C(=O)O[C@@H]1C(OC)=C[C@]23CCCN2CCc2cc4c(cc2[C@H]13)OCO4` [compound 1, homoharringtonine, reference compound], the values for the IC50 in series [1] (setting [5]) and in series [2] (setting [6]) were 230 nM and 170 nM, respectively.
For the compound `C[C@@H]1C[C@@H]([C@H](O)CC2CC(=O)NC(=O)C2)C(=O)[C@@H](C)C1` [compound 2, cycloheximide, reference compound], the IC50 is 5600 nM in series [3] (Mus musculus, P388, read-out: Cytotoxicity IC50, P388); greater than 10000 nM in series [1] (setting [5]); greater than 10000 nM in series [2] (setting [6]).
As a reminder, the GI50 is the concentration giving 50% growth inhibition. On to `C=C1[C@@H](O)C[C@H]2C(C)(C)C[C@H](Cl)C[C@]2(C)[C@H]1C[C@H](O)[C@H]1CC(=O)NC1=O` [compound 3, chlorolissoclimide], for which the concentration for 50% growth inhibition (GI50) in series [4] came to 15 nM. The IC50 in series [1] (setting [5]) stood at 490 nM; in series [2] (setting [6]) it was 250 nM.
With `C=C1[C@@H](O)C[C@H]2C(C)(C)[C@@H](Cl)[C@H](Cl)C[C@]2(C)[C@H]1C[C@H](O)[C@H]1CC(=O)NC1=O` [compound 4, dichlorolissoclimide, reference compound], the half-inhibitory concentration (IC50) in series [3] (Mus musculus, P388, read-out: Cytotoxicity IC50 against P388) was roughly 400 nM.
On to `C=C1[C@@H](OC(C)=O)C[C@H]2C(C)(C)C[C@H](Cl)C[C@]2(C)[C@H]1C[C@H](O)[C@H]1CC(=O)NC1=O` [compound 7], for which the results for the IC50 in series [3] (setting [7]), in series [1] (setting [8]) and in series [2] (setting [9]) were 2100 nM, 460 nM and 3460 nM, respectively.
The like results for `C=C1[C@@H](O)C[C@H]2C(C)(C)CCC[C@]2(C)[C@H]1C[C@H](O)[C@H]1CC(=O)NC1=O` [compound 8, haterumaimide Q] were, in that order, 200 nM, 1490 nM and 2340 nM.
